The values below come from patent publication US4720489A, “Hair growth modification with ornithine decarboxylase inhibitors” (priority 1984, dated 1988).

Data set [1] deals with androgen-mediated hair growth in male hamsters (flank organ hair mass). The experiment in a line: inhibition of androgen-mediated hair growth in male hamsters following topical application for 21 consecutive days (flank organ hair mass). It is filed as in vivo, hamster. The following applies: 500 micrograms in 10 microliters 70% ethanol, regrowth during final ten days. How it is done:
Five hundred micrograms of the compound in ten microliters of 70% ethanol was applied topically for 21 consecutive days. Hair mass changes were determined by comparing the regrowth of hair during the final ten days of treatment. […] Furthermore, the magnitude of hair mass inhibition in the hamsters treated with the ODC inhibitor (60%) approached that observed in 21-day castrated hamsters (78%).

Data set [2] concerns flank organ hair mass in adult intact male hamsters. The data set is described as follows: efficacy of topical compositions in reducing flank organ hair mass in adult intact male hamsters (Tables I and II). The class given is in vivo, hamster. Conditions: 15 days (Mon-Fri) in 21-day interval, versus vehicle controls. How it is done:
Summarized below in Tables I and II are the results of two experiments comparing the efficacy of several compositions in reducing the flank organ hair mass in adult intact male hamsters. In each case, hamsters were treated for 15 days (Monday-Friday) during a 21-day interval. Flank organ hairs were epilated on the first day of treatment and re-epilated on the sixth day of treatment. […] The results for percent inhibition shown below are based upon comparisons between the hair mass values of hairs harvested from treated flank organs of experimental animals and those obtained from vehicle-treated control animals.

Data set [3] deals with ornithine decarboxylase (ODC), flank organ. The experiment in a line: flank organ ODC activity after topical application for 21 consecutive days. It is filed as in vivo, hamster. The following applies: 500 micrograms in 10 microliters 70% ethanol, versus hamsters castrated for 21 days.
For data set [4], the system named is Flank Organ Hair Mass. The experiment in a line: similar series of experiments comparing a variety of compositions, flank organ hair mass (Table III). The class given is in vivo, hamster. Also noted: Flank Organ Hair Mass, Untreated / Flank Organ Hair Mass, Treated: unit not given here. As for the experimental part: Additional experiments were conducted to test topical regimens composed of a combination of 2(difluoromethyl)-2,5-diaminopentanoic acid along with antiandrogens. […] In each case, hamsters were treated for 15 days (Monday-Friday) during a 21-day interval. Flank organ hairs were epilated on the first day of treatment and re-epilated on the sixth day of treatment. The mass of flank organ hair represents the regrowth during the final 14 days of the 21-day interval.

The subject of data set [5] is brain 4-aminobutyric acid levels. Conditions: transformation catalyzed by mitochondrial monoamine oxidase; known secondary pharmacological effect; cited from earlier work.
Setting [6] is: Table II, 500 micrograms per square centimeter.
Setting [7] is: 5 micrograms per square centimeter.
Where [8] appears, read: 50 micrograms per square centimeter.
Setting [9] is: 250 micrograms per square centimeter.
Setting [10] is: 500 micrograms per square centimeter.

For the molecule `NCCCC(N)(C(=O)O)C(F)F` (stereo not shown) [2(difluoromethyl)-2,5-diaminopentanoic acid], the “magnitude of hair mass inhibition” value in data set [1] is recorded as 60%. Besides, the “% Inhibition (flank organ hair mass)” value is recorded as 46% in data set [2] (Table I, 500 micrograms per square centimeter); 41% in data set [2] (setting [6]); 2% in data set [4] (setting [7]); 7% in data set [4] (setting [8]); 24% in data set [4] (setting [9]); 33% in data set [4] (setting [10]). In data set [3], the “flank organ ODC activity” value was “reduced to levels found in hamsters castrated for 21 days”. Further, the “Flank Organ Hair Mass, Treated” value in data set [4] (setting [7]) came to 3.20; in data set [4] (setting [8]), 2.85; in data set [4] (setting [9]), 2.29; in data set [4] (setting [10]) it was 1.81. Further, the “Flank Organ Hair Mass, Untreated” value in data set [4] (treatment group 5 micrograms per square centimeter) came out at 3.26; in data set [4] (treatment group 50 micrograms per square centimeter) it was 3.05; in data set [4] (treatment group 250 micrograms per square centimeter) it was 3.00; in data set [4] (treatment group 500 micrograms per square centimeter) it was 2.71.

Regarding `C#CC(N)CCCN` (stereo not shown) [5-hexyne-1,4-diamine], in data set [5], the “brain 4-aminobutyric acid levels” value is given as “increases in brain 4-aminobutyric acid levels”.

In the case of `CC(=O)O[C@]1(C(C)=O)CC[C@H]2[C@@H]3C=C(Cl)C4=CC(=O)CC[C@]4(C)[C@H]3CC[C@@]21C` [Chloromadinone acetate, chlormadinone acetate], in data set [2] (setting [6]), the “% Inhibition (flank organ hair mass)” value turned out to be 41%.

On to `CC(=O)[C@H]1CC[C@H]2[C@@H]3CCC4=CC(=O)CC[C@]4(C)[C@H]3CC[C@]12C` [Progesterone, progesterone], for which the “% Inhibition (flank organ hair mass)” value in data set [2] (Table I, 1000 micrograms per square centimeter) amounted to 50%.
